Test results published in patent US10946019B2, “Nurr1:RXR activating compounds for simultaneous treatment of symptoms and pathology of Parkinson's disease” (priority 2015, dated 2021).

Tests used:
[1] = system: striatal DA levels; assay: Striatal dopamine and metabolite levels by HPLC-ECD in wild type mice; assay type: in vivo, mouse
Protocol: 4 hours after dosing, animals were killed by cervical dislocation, brains were removed, and the striata were dissected on ice. The samples were immediately frozen and stored at −80° C. until use. The tissues were processed for the analysis by high performance liquid chromatography (HPLC) with an electrochemical detector (ECD) (Emmanouil et al., 2006). The dissected tissues were weighed, homogenized, and deproteinized in 0.2N perchloric acid solution containing 7.9 mM Na2S2O5 and 1.3 mM Na2EDTA. The homogenate was centrifuged at 37,000×g for 30 minutes, and the supernatant was stored at −80° C. until assayed. A reverse-phase ion-pair chromatography was used in all analyses, and the mobile phase consisted of an acetonitrile-50 mM phosphate buffer at pH 3.0, containing 5-octylsulfate sodium salt (300 mg/L) as the ion-pair reagent and (20 mg/L) Na2EDTA. Reference standards were prepared in 0.2 N perchloric acid solution containing 7.9 mM Na2S2O5 and 1.3 mM Na2EDTA. Samples were quantified by comparison of the areas under the peaks with those of reference standards using HPLC software (Chromatography Station for Windows™, Watrex International Inc., San Francisco, Calif.). […]

[2] = molecular target: RXRαVP16 heterodimer chimeras with RXRγGAL4 (Homo sapiens (Human), UniProt P19793); assay: GAL4/VP16 chimera specificity luciferase assay in SHSY-5Y; assay type: cell-based; details: GAL4-responsive luciferase reporter
Protocol: (§1) Compound 3 specifically activates Nurr1:RXRα heterodimers over other RXR-containing transcription co-activator complexes. Specificity assays fusing DNA sequences of the gal4 DNA binding domain to the nuclear receptor Ligand-Binding-Domain (LDB) and to vp16 were performed as follows: Human SHSY-5Y cells were cotransfected with 20 ng of MH100-tk -luciferase, 10 ng of CMX-bgal, 20 ng of CMX-GAL4-RXRα-LBD and 20 ng of CMX-VP16-NR-LBD, where NR stands for either Nurr1, VDR, PPARγ. CMX-VP16-VDR-LBD and CMX-VP16-PPARγ-LBD were kindly provided by Dr Makishima ([…]). CMX-VP16-Nurr1-LBD was produced by cloning the Nurr1 LBD in the CMX-VP16 vector using KpnI. More specifically, Nurr1-LBD was isolated by PCR from a vector containing the Nurr1 cDNA using a set of primers flanking the Nurr1 LBD sequence and carrying at both sides the KpnI restriction sites, namely Nurr1 Forward […] (SEQ ID NO: 1) and Nurr1 Reverse […] (SEQ ID NO: 2). To exclude the possibility that compound 3 might transactivate RXRγ:Nurr1 heterodimers, CMX-GAL4-RXRγ-LBD was constructed by cloning the RXRγ LBD that was isolated by PCR from a vector containing the RXRγ cDNA (RIKEN, Tokyo, Japan) using the following Forward and Reverse primers carrying KpnI and NheI restriction sites, respectively, namely RXRγ Forward […] (SEQ ID NO: 3) and RXRγ LBD Reverse […] (SEQ ID NO: 4). 17 hours after transfection the compound was added to the medium at the corresponding concentrations and left for another 12 hours. Then the cells were assayed for luciferase activity normalized to galactosidase activity.
(§2) To test off-target effects of compound 3 on complexes aside from Nurr1:RXRα heterodimers, we fused the ligand binding domains of Nurr1, RXRα and a variety of related nuclear receptors to GAL4 DNA-binding domain to create chimeric proteins, while the ligand-binding domain of RXRα was also fused with VP16. These molecular chimeras were co-transfected in pairs with the RXRα:VP16 along with a GAL4-responsive luciferase reporter in SHSY-5Y, which were stimulated with compound 3. […] The above experiments indicate the high degree of selectivity of compound 3 and point to its neuroprotective potential.

[3] = molecular target: RXRαVP16 heterodimer chimeras with VDRGAL4 (Homo sapiens (Human), UniProt P19793); assay: as above; assay type: cell-based; details: GAL4-responsive luciferase reporter
Protocol: as §1, §2

[4] = molecular target: RXRαVP16 heterodimer chimeras with PPARγGAL4 (Homo sapiens (Human), UniProt P19793); assay: as above; assay type: cell-based; details: GAL4-responsive luciferase reporter
Protocol: as §1, §2

[5] = molecular target: Nurr1GAL4:RXRαVP16 heterodimer chimeras (Homo sapiens (Human), UniProt P19793); assay: as above; assay type: cell-based; details: GAL4-responsive luciferase reporter
Protocol: as §1, §2

[6] = molecular target: RXRαGAL4 homodimer chimeras (Homo sapiens (Human), UniProt P19793); assay: as above; assay type: cell-based; details: GAL4-responsive luciferase reporter
Protocol: as §1, §2

[7] = molecular target: Nurr1:RXRα heterodimer (Homo sapiens (Human), UniProt P19793); assay: Nurr1:RXRα-dependent luciferase reporter (DR5-TK-Luc) transactivation assay; assay type: cell-based; details: SHSY-5Y, luciferase
Chain of Nurr1:RXRα heterodimer (P19793 whole entry): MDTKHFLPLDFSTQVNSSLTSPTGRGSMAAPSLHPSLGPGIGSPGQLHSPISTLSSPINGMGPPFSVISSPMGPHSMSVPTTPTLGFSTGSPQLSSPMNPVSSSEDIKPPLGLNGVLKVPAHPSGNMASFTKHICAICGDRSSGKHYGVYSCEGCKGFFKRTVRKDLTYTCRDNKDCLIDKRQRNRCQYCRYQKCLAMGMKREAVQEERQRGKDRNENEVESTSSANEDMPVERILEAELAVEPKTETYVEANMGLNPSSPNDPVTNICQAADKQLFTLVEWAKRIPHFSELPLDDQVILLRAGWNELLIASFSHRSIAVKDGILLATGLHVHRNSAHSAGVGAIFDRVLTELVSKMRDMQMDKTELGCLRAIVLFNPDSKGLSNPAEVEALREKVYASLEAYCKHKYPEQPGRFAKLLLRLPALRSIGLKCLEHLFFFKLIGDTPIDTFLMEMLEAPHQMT
Chain of Nurr1:RXRα heterodimer (P43354 whole entry partner): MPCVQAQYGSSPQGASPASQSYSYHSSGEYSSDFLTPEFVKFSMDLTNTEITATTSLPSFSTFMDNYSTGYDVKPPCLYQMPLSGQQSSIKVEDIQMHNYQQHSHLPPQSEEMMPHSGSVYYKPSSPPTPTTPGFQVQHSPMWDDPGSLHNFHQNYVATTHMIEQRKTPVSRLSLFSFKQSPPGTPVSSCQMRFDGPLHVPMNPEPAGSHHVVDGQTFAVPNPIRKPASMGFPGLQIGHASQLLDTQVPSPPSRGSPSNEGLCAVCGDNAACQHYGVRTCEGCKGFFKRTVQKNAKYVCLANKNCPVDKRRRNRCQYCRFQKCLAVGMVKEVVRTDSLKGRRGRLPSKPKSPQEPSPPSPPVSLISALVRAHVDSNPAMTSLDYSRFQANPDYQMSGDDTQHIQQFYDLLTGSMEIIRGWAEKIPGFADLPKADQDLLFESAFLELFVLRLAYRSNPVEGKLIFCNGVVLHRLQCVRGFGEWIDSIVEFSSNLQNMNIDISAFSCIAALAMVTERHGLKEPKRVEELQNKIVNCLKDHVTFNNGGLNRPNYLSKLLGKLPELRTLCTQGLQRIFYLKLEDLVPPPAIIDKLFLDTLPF
Protocol: The in vitro transactivation assay determined the capacity of the compounds of the invention to activate the Nurr1:RXR heterodimers. Naive SHSY-5Y cells were transiently co-transfected, using Lipofectamine 2000 (Invitrogen), with a plasmid expressing the human receptor Nurr1, a plasmid expressing the RXR human receptor (RXRα or RXRγ receptor) and a reporter plasmid DR5-TK-Luc. […] After incubation overnight, the expression of luciferase was measured (FIG. 1A).

Chain of RXRαVP16 heterodimer chimeras with PPARγGAL4 (P19793 whole entry, looked up, change not shown, the tested form may be a part): as the sequence (P19793 whole entry) above
Chain of RXRαVP16 heterodimer chimeras with PPARγGAL4 (P37231 whole entry partner, looked up, the tested form may be a part): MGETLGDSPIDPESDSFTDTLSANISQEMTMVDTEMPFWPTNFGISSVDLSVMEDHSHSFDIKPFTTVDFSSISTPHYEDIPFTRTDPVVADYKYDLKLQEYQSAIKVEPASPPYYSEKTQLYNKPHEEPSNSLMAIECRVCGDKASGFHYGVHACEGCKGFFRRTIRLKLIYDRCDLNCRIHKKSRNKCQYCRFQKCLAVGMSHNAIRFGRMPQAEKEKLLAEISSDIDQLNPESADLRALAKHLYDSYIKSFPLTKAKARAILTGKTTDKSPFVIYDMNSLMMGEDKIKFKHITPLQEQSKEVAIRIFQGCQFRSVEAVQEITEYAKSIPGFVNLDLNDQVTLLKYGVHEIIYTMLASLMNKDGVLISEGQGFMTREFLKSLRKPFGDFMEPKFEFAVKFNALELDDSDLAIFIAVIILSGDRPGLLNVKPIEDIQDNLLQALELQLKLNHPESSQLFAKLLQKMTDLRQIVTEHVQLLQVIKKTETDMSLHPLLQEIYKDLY
Chain of RXRαVP16 heterodimer chimeras with RXRγGAL4 (P19793 whole entry, looked up, change not shown, the tested form may be a part): as the sequence (P19793 whole entry) above
Chain of RXRαVP16 heterodimer chimeras with RXRγGAL4 (P48443 whole entry partner, looked up, the tested form may be a part): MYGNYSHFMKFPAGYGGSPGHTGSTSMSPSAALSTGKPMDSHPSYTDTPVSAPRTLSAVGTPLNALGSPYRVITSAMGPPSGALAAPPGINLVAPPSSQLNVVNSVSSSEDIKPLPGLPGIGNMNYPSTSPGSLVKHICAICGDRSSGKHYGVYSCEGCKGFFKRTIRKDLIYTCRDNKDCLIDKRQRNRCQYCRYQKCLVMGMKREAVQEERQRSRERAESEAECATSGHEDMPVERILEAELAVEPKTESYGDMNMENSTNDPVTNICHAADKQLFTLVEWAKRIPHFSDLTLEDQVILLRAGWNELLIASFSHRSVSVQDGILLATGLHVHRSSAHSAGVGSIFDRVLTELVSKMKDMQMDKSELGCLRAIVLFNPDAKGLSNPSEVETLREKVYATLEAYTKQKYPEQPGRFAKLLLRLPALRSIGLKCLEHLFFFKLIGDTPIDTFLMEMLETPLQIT
Chain of RXRαVP16 heterodimer chimeras with VDRGAL4 (P19793 whole entry, looked up, change not shown, the tested form may be a part): as the sequence (P19793 whole entry) above
Chain of RXRαVP16 heterodimer chimeras with VDRGAL4 (P11473 whole entry partner, looked up, the tested form may be a part): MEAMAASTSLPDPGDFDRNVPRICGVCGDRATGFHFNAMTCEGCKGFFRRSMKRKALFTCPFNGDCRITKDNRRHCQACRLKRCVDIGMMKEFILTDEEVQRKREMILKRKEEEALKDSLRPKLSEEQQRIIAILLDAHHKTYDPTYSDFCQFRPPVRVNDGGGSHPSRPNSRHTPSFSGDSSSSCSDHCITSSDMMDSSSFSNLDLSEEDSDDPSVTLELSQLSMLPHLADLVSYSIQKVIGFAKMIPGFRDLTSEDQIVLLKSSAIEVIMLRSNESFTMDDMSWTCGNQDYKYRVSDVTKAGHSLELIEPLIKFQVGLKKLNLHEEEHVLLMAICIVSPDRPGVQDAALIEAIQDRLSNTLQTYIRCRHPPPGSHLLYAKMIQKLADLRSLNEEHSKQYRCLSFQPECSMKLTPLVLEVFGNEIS
Chain of Nurr1GAL4:RXRαVP16 heterodimer chimeras (P19793 whole entry, looked up, change not shown, the tested form may be a part): as the sequence (P19793 whole entry) above
Chain of Nurr1GAL4:RXRαVP16 heterodimer chimeras (P43354 whole entry partner, looked up, the tested form may be a part): as the sequence (P43354 whole entry partner) above
Chain of RXRαGAL4 homodimer chimeras (P19793 whole entry, looked up, change not shown, the tested form may be a part): as the sequence (P19793 whole entry) above
Chain of RXRαGAL4 homodimer chimeras (P19793 whole entry, looked up, change not shown, the tested form may be a part): as the sequence (P19793 whole entry) above

C=CCc1c(N(C)c2ccc(C(=O)O)cc2)nc(-c2ccccc2)nc1C(F)(F)F [Example 3, 4-((5-allyl-2-phenyl-6-(trifluoromethyl)pyrimidin-4-yl)(methyl)amino)benzoic acid]
increase of striatal DA levels and dopamine metabolite (DOPAC and HVA) levels ([1]; wild type C57/BL6 mice, single IP 20 mg/kg, 4 hours after dosing): 33% | striatal DA and DA metabolite levels ([1]; wt mice, single IP 10 mg/kg, 4 hours): increased | activation of RXRγGAL4:RXRαVP16 chimeras [2]: failed to activate | activation of VDRGAL4:RXRαVP16 chimeras [3]: failed to activate | activation of PPARγGAL4:RXRαVP16 chimeras [4]: failed to activate | activation of Nurr1GAL4:RXRαVP16 heterodimer chimeras [5]: strongly activated | activation of RXRαGAL4 homodimer chimeras [6]: failed to activate | activation of Nurr1:RXRα heterodimers [7]: activated
